Results taken from publication PMC11434868, “Synthesis and Antiproliferative Effect of 3,4,5-Trimethoxylated Chalcones on Colorectal and Prostatic Cancer Cells” (Pharmaceuticals, 2024).

Key:
HCT116 [1] = test: MTT assay, antiproliferative effect on HCT116; type: cell-based; settings: Homo sapiens
Procedure, shortened: (§1)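 Cells grown 24 h in RPMI 1640/10% FBS, then treated. MTT: 5 nM–50 μM for 24 and 48 h, OD 550 nm, viability vs control, IC50 from dose–response. Trypan blue: 48 h treatment, viable/non-viable counts by automated counter, IC50 from % viable cells vs control.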

HT-29 [2] = test: MTT assay, antiproliferative effect on HT-29; type: cell-based, human; settings: Homo sapiens
Procedure, shortened: as §1

DU145 [3] = test: MTT assay, antiproliferative effect on DU145; type: cell-based; settings: Homo sapiens
Procedure, shortened: as §1

PC3 [4] = test: MTT assay, antiproliferative effect on PC3; type: cell-based; settings: Homo sapiens
Procedure, shortened: as §1

HCT116 [5] = test: Trypan blue dye exclusion method on HCT116; type: cell-based, human
Procedure: (§2) Human CRC (HCT116 and HT-29) and PCa (DU145 and PC3) cell lines were purchased from the American Type Culture Collection (ATCC—LGC Standards, Molsheim, France). All cells were grown in RPMI 1640 medium supplemented with 10% FBS, 1% L-glutamine, 100 U/mL penicillin, and 100 μg/mL streptomycin. Cultures were maintained in a humidified atmosphere containing 5% CO2 at 37 °C. Cells were seeded in 75 cm^2 culture flasks at 1.2 × 10^4 cells/cm^2 for HCT116, DU145, and PC3 cells, and 2.0 × 10^4 for HT-29 cells. Cells were grown for 24 h in culture medium prior to exposure or not to obtain the synthesized compounds. Stock solutions (10^−2 M in DMSO) of each compound were diluted in culture medium to obtain appropriate final concentrations.
(§3) • (a) MTT assay: The antiproliferative effect of all compounds was determined using MTT assay (a metabolic activity test). Briefly, cells were seeded in 96-well culture plates at 4 × 10^3 cells/well for HCT116, PC3, and DU145 cells and 6 × 10^3 cells/well for HT-29 cells (100 µL/well), and grown for 24 h in culture medium prior to exposure or not to obtain compounds 1–15 with concentrations ranging from 5 nM to 50 μM. After 24 and 48 h of treatment, MTT (5 mg/mL in PBS) was added and incubated for another 3 h. MTT was then removed from the wells before adding 100 μL/well of DMSO. The optical density was detected with a microplate reader (Multiskan FC, Thermoscientific, Bordeaux, France) at 550 nm and cell viability was expressed as a percentage of each treatment condition compared to control cells. IC50 values were calculated for all compounds from the dose–response curve. Data are expressed as the arithmetic means ± standard error of the mean (SEM) of separate experiments. All experiments were performed at least in triplicate. • (b) Trypan blue dye exclusion method: Cells were grown for 24 h then treated with compounds 10 and 13 at indicated concentrations. After 48 h of treatment, cells were trypsinized and resuspended in complete medium. Each sample was mixed with Trypan blue solution (0.14% in HBSS, Invitrogen-GIBCO, ThermoFisher, Illkirch, France). Colored (non-viable) and dye-excluding (viable) cells were counted with the LUNA-II automated cell Counter (Logos Biosystems; MC2, Aubière, France). The control was normalized to 100% including viable and dead cells. The results indicated on the histograms were expressed as the percentage of cells compared to the control. IC50 values were determined from the percentages of viable cells compared to the control.

HT-29 [6] = test: Trypan blue dye exclusion method on HT-29; type: cell-based, human
Procedure: as §2, §3

DU145 [7] = test: Trypan blue dye exclusion method on DU145; type: cell-based, human
Procedure: as §2, §3

PC3 [8] = test: Trypan blue dye exclusion method on PC3; type: cell-based, human
Procedure: as §2, §3

[9] = system: caspase-3 and PARP in HCT116 cells; test: Western blot of apoptosis-related proteins in HCT116; type: cell-based, human; settings: HCT116, 48 h;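 also: compared with untreated control cells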
Procedure: (§4) For total protein extraction, collected samples of each condition were washed in PBS. Then, the total cell pool was centrifuged at 200 g for 5 min at 4 °C and homogenized in RIPA lysis buffer (50 mM HEPES, pH 7.5, 150 mM NaCl, 1% sodium deoxycholate, 1% NP-40, 0.1% SDS, […] of aprotinin) containing protease inhibitors according to the manufacturer’s instructions. After quantification of protein levels using the Bradford method, proteins ([…]) were separated on 12.5% SDS-PAGE gels and transferred to PVDF membranes (GE Healthcare Life Science—Fisher Scientific). Membranes were probed with respective antibodies against human caspase-3, cleaved caspase-3, and PARP according to the manufacturer’s instructions. After incubation with appropriate secondary antibodies, blots were developed using the “ImmobilonWestern” substrate, following the manufacturer’s protocol, and G:BOX system (Syngene, Cambridge, UK). Membranes were then reblotted with human anti-β-actin used as a loading control.

[10] = system: caspase-3 and PARP in DU145 cells; test: Western blot of apoptosis-related proteins in DU145; type: cell-based, human; settings: DU145, 48 h;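 also: compared with untreated control cells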
Procedure: as §4

[11] = system: caspase-3 and PARP in PC3 cells; test: Western blot of apoptosis-related proteins in PC3; type: cell-based, human; settings: PC3, 48 h;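 also: compared with untreated control cells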
Procedure: as §4

[12] = system: human CRC (HCT116 and HT-29) and human PCa (DU145 and PC3) cell lines; test: MTT assay, summary statements over the cell lines; type: cell-based
Procedure: as §2, §3

## COc1cc(C(=O)/C=C/c2coc3ccc(C)cc3c2=O)cc(OC)c1OC [chalcone 13, (E)-6-methyl-3-(3-oxo-3-(3,4,5-trimethoxyphenyl)prop-1-en-1-yl)-4H-chromen-4-one]
HCT116 [1]; HCT-116, 24 h, read-out: IC50 HCT116 24 h
  IC50: 2.86 ± 0.2 µM
HCT116 [1]; HCT-116, 48 h, read-out: IC50 HCT116 48 h
  IC50: 2.59 ± 0.12 µM
HT-29 [2]; HT-29, 24 h, 24 h, read-out: IC50 HT-29 24 h
  IC50: 3.88 ± 0.08 µM
HT-29 [2]; HT-29, 48 h, 48 h, read-out: IC50 HT-29 48 h
  IC50: 3.1 ± 0.17 µM
DU145 [3]; DU-145, 24 h, read-out: IC50 DU145 24 h
  IC50: 3.92 ± 0.24 µM
DU145 [3]; DU-145, 48 h, read-out: IC50 DU145 48 h
  IC50: 3.31 ± 0.09 µM
PC3 [4]; PC-3, 24 h, read-out: IC50 PC3 24 h
  IC50: 5.18 ± 0.39 µM
PC3 [4]; PC-3, 48 h, read-out: IC50 PC3 48 h
  IC50: 5.13 ± 0.25 µM
HCT116 [5]; HCT116, 48 h, 2.5 µM
  Dead cells: 5.46%
HCT116 [5]; HCT116, 48 h, 5 µM
  Dead cells: 11.11%
HCT116 [5]; HCT116, 48 h, 7.5 µM
  Dead cells: 10.46%
HCT116 [5]; Homo sapiens, HCT-116, 48 h, from percentages of viable cells, read-out: IC50 Trypan Blue Test HCT116
  IC50: 3.48 µM
HCT116 [5]; Homo sapiens, HCT-116, HCT116, 48 h, 2.5 µM, read-out: Viable cells
  viability at 2.5 µM: 74.1%
HCT116 [5]; Homo sapiens, HCT-116, HCT116, 48 h, 5 µM, read-out: Viable cells
  viability at 5 µM: 19.6%
HCT116 [5]; Homo sapiens, HCT-116, HCT116, 48 h, 7.5 µM, read-out: Viable cells
  viability at 7.5 µM: 10.1%
HT-29 [6]; HT-29, 48 h, 2.5 µM
  Dead cells: 5.48%
HT-29 [6]; HT-29, 48 h, 7.5 µM
  Dead cells: 9.04%
HT-29 [6]; Homo sapiens, HT-29, 48 h, from percentages of viable cells, read-out: IC50 Trypan Blue Test HT-29
  IC50: 4.05 µM
HT-29 [6]; Homo sapiens, HT-29, 48 h, 2.5 µM, read-out: Viable cells
  viability at 2.5 µM: 72.2%
HT-29 [6]; Homo sapiens, HT-29, 48 h, 5 µM, read-out: Viable cells
  viability at 5 µM: 37.6%
HT-29 [6]; Homo sapiens, HT-29, 48 h, 7.5 µM, read-out: Viable cells
  viability at 7.5 µM: 18.5%
DU145 [7]; DU145, 48 h, 2.5 µM
  Dead cells: 3.24%
DU145 [7]; DU145, 48 h, 5 µM
  Dead cells: 8.67%
DU145 [7]; DU145, 48 h, 7.5 µM
  Dead cells: 6.49%
DU145 [7]; Homo sapiens, DU-145, 48 h, from percentages of viable cells, read-out: IC50 Trypan Blue Test DU145
  IC50: 3.98 µM
DU145 [7]; Homo sapiens, DU-145, DU145, 48 h, 2.5 µM, read-out: Viable cells
  viability at 2.5 µM: 84.6%
DU145 [7]; Homo sapiens, DU-145, DU145, 48 h, 5 µM, read-out: Viable cells
  viability at 5 µM: 29.3%
DU145 [7]; Homo sapiens, DU-145, DU145, 48 h, 7.5 µM, read-out: Viable cells
  viability at 7.5 µM: 12.8%
PC3 [8]; Homo sapiens, PC-3, 48 h, from percentages of viable cells, read-out: IC50 Trypan Blue Test PC3
  IC50: 5.33 µM
PC3 [8]; Homo sapiens, PC-3, PC3, 48 h, 2.5 µM, read-out: Viable cells
  viability at 2.5 µM: 92.8%
PC3 [8]; Homo sapiens, PC-3, PC3, 48 h, 5 µM, read-out: Viable cells
  viability at 5 µM: 54.3%
PC3 [8]; Homo sapiens, PC-3, PC3, 48 h, 7.5 µM, read-out: Viable cells
  viability at 7.5 µM: 15.4%
PC3 [8]; PC3, 48 h, 2.5 µM
  Dead cells: 9.51%
PC3 [8]; PC3, 48 h, 5 µM
  Dead cells: 6.14%
PC3 [8]; PC3, 48 h, 7.5 µM
  Dead cells: 4.23%
[9]
  cleaved caspase-3: clearly observed
  native PARP expression: strong decreased expression
  pro-caspase-3 expression: decreased
[10]
  PARP cleavage (89 kDa fragment): clearly observed
  cleaved caspase-3: clearly observed
  native PARP expression: strong decreased expression
  pro-caspase-3 expression: decrease was less marked
[11]
  PARP cleavage (89 kDa fragment): clearly observed
  cleaved caspase-3: clearly observed
  native PARP expression: strong decreased expression
  pro-caspase-3 expression: decreased
[12]; Homo sapiens, 48 h, read-out: IC50 over the four cell lines
  IC50: 2.6 to 5.1 µM
[12]; Homo sapiens, 48 h, from the concentration of 10 µM, whole cell lines
  viability at 10 µM: < 10%
[12]; comparison of IC50 values
  activity relative to chalcone 12: four times more active
